# Reference: US10568866B1, “Composition and its use for increasing innate immune health” (priority 2018, dated 2020)
# Key:
# Format in all cases: cell-based
# IL-6 = assay: Pro-inflammatory IL-6 release by LPS stimulated RAW264.7 macrophages (ELISA); conditions: for comparative effectiveness in decreasing IL-6 secretion (in words): 5-20 μg/ml individually, 75 μg/ml mixture, LPS stimulated, FIG. 3
# Method: The pro-inflammatory IL-6 release by RAW264.7 macrophages was assessed using the IL-6 Quantikine ELISA assay kit (R&D, Minneapolis, Minn.) according to the manufacturer's protocol. Briefly, 2×10^6 of cells were plated in 6-well plates and allowed to settle for 2-4 h, followed by incubation with different micronutrients and plant extracts (5-20 μg/ml) 24 h at 37° C. in 5% CO2 atmosphere. After the incubation period, cells were stimulated with LPS (10 ng/ml) for additional 24 h and all supernatants were collected and subjected to ELISA assay according to manufacturer's protocol. As a positive control, LPS-stimulated cells without treatment were used. All experiments were done in triplicate.
# The effect of naturally-derived agents and their mixture on release of pro-inflammatory IL-6 by RAW264.7 macrophage cell line. Macrophages were pre-incubated with different micronutrients and plant extracts (5-20 μg/ml) individually and in a mixture followed by their stimulation with Lipopolysaccharide (LPS). Each column represents the mean±standard deviation (n=4).
# RAW264.7 macrophages = assay: In vitro phagocytic assay (nitroblue tetrazolium (NBT) reduction test), RAW264.7 macrophages; conditions: 5-20 μg/ml individually, 75 μg/ml mixture, 24 h, FIG. 1A
# Method: RAW264.7 macrophages (5×10^6 cells/well of a 96-well plate) were cultured with different micronutrients and plant extracts (5-20 μg/ml) for 24 h at 37° C. Thereafter, 20 μl C. albicans or S. mutans (5×10^7 cells/ml in PBS) suspension, and 20 μl nitroblue tetrazolium (1.5 mg/ml of NBT in PBS) were added to each well. Wells that received PBS+DMSO were used as control. Next, cells were incubated for 3 h at 37° C., the supernatant was removed, and the adherent macrophages were rinsed with RPMI 1640. The cells were air dried before 80 μl of 2M KOH and 100 μl DMSO were added to each well. The absorbance was measured at 570 nm using the microplate reader. Percentage of NBT reduction (reflecting phagocytic activity) was calculated as following equation: Phagocytic Index=(ODsample−ODcontrol)/ODcontrol.
# The assay used nitroblue tetrazolium (NBT) reduction test after treatment with different individual micronutrients and plant extracts (5-20 μg/ml) and their combination for 24 h at 37° C. PI and phagocytosis was tested using C. albicans and S. mutants. Values shown are mean±standard deviation (n=4).
# YAC-1 cells = assay: Cytotoxicity assay of natural killer (NK) cells toward target YAC-1 cells (MTT); conditions: individual compounds 5-20 μg/ml, 24 h, FIG. 2
# Method: Cytotoxicity Assay of Natural Killer (NK) Cells were performed using splenic natural killer (as the effector cells) activity assay was carried out according as described by Yi et al. Carbohydr. Polym. 2012, 87:636-643. The splenocytes/splenic NK cells were plated into 96-well plates at a density of 1×10^7 cells/ml per well in a 50 μl volume, and stimulated with different micronutrients and plant extracts (5-20 μg/ml) for 24 h at 37° C. Then, YAC-1 cells (1×10^6 cells/ml) were added into all experimental wells (group) and complete medium only was placed in the other wells as the effector control. At the same time, complete medium (100 μl), containing only YAC-1 cells (1×10^6 cells/ml), was added into empty wells as the target control. […] The absorbance was measured at 570 nm using a microplate reader. Cytotoxicity of NK cell was expressed as Cytotoxic Index (percent lysis of target cells): CI=[ODT−(ODexp.−ODE)]/ODT×100], where ODT represents OD value of the target control, whereas ODexp. and ODE represent OD value of the experimental group and effector control, respectively.
# Cytotoxicity of NK cells toward target YAC-1 cells in the presence of different micronutrients and plant extracts (5-20 μg/ml) used individually and in a combination for 24 h at 37° C. Cytotoxicity of NK cells was assessed by the MTT assay and expressed as the mean±standard deviation (n=4).
molecule,measurement,setting,value
O=C(O)CCCCC1CCSS1 (stereo not drawn) [Alpha lipoic acid],comparative effectiveness in decreasing IL-6 secretion (in words),IL-6,best natural compounds
O=C1O[C@H]([C@@H](O)CO)C(O)=C1O [Vitamin C],comparative effectiveness in stimulating phagocytic activity of RAW264.7 macrophages (in words),RAW264.7 macrophages,most effective individual agents
same,comparative effectiveness in decreasing IL-6 secretion (in words),IL-6,best natural compounds
Fucoidan,comparative effectiveness on NK cell cytotoxicity (in words),YAC-1 cells,two most effective individual compounds
Lipopolysaccharide [LPS],stimulation of IL-6 secretion by exposure of RAW264.7 macrophages to LPS,"IL-6; LPS 10 ng/ml, 24 h, no treatment (positive control)",over 300%
